Measured values as given in patent US20050074819A1, “Screening method of drug for treatment of neuropathic pain” (JAPAN HEALTH SCIENCES FOUNDATION, priority 2003, published 2005).

Tests used:
[1] = system: male Wistar rats with L5 spinal nerve injury; assay: Tactile allodynia after L5 spinal nerve injury, von Frey paw withdrawal threshold, intrathecal injection; format: in vivo, rat; conditions: for paw withdrawal threshold 45 min after injection: ipsilateral hindpaw
Description: (§1) We used the spinal nerve injury model (Kim, S. H. & Chung, J. M. An experimental model for peripheral neuropathy produced by segmental spinal nerve ligation in the rat. Pain 50, 355-363. (1992)) with some modifications; a unilateral L5 spinal nerve of male Wistar rats was tightly ligated and cut just distal to the ligature. The mechanical allodynia was assessed in naive and nerve-injured rats using calibrated von Frey filaments (0.4-15.1 g). Rats were injected intrathecally with P2XR antagonists, TNP-ATP and PPADS (Sigma-RBI), and antisense and mismatch ODN. For the experiments in FIG. 5, the cultured microglia (see Supplementary Information 1) that had been pre-incubated with or without ATP (50 μM) were injected intrathecally in normal rats. Full details of experimental methods are as follows.
(§2) A unilateral L5 spinal nerve of male Wistar rats was tightly ligated and cut just distal to the ligature. To assess the mechanical allodynia, the calibrated von Frey filaments (0.4-15.1 g) were applied to the plantar surface of the hindpaw from below the mesh floor. The 50% paw withdrawal threshold was determined using the up-down method (Chaplan, S. R., Bach, F. W., Pogrel, J. W., Chung, J. M. & Yaksh, T. L. Quantitative assessment of tactile allodynia in the rat paw. J Neurosci Methods 53, 55-63, 1994). Rats were implanted with a PE-10 polyethylene tube to the lumber enlargement (Yaksh, T. L., Jessell, T. M., Gamse, R., Mudge, A. W. & Leeman, S. E. Intrathecal morphine inhibits substance P release from mammalian spinal cord in vivo. Nature 286, 155-157, 1980) for intrathecal injection of P2XR antagonists [2′,3′-O-(2,4,6-trinitrophenyl)adenosine 5′-triphosphate (TNP-ATP) (Sigma-RBI) and pyridoxalphosphate-6-azophenyl-2′,4′-disulphonic acid (PPADS) (Sigma-RBI)], P2X4R antisense or mismatch ODN. We confirmed that PPADS and TNP-ATP used in the present study show biological activity to inhibit effects of α,β-methylene ATP in vitro and in vivo. The 16-base antisense ODN endcapped with phosphorothioate linkages were designed according to the primary sequence of the rat P2X4R cDNA (X87763). The sequence of the P2X4R antisense and mismatch ODN was 5′-CAGCCCGCCATGGCTC-3′ (SEQ ID NO: 3) and 5′-ACCGCCGCCAGTGCCT-3′ (SEQ ID NO: 4), respectively. The mismatch ODN served as a control. Rats were injected intrathecally with antisense ODN (5 nmol 10 μl^−1) and mismatch ODN (5 nmol 10 μl^−1) using a 25-μl Hamilton syringe with 28-gauge needle once a day from day 0 (immediately after nerve injury) to day 6. On day 7, paw withdrawal threshold of antisense ODN- and mismatch ODN-treated rats were tested. After the test, to quantify the levels of P2X4R protein in the spinal cord in both groups using Western blot analysis, the membrane fraction from the ipsilateral spinal cord segments L4-L6 was prepared. For the experiments in which cultured microglia were administered intrathecally, the cultured microglia were pre-incubated with ATP (50 μM) or PBS for 1 hr at 37° C. immediately prior to administration. Microglia with their supernatant were injected intrathecally in normal rats and paw withdrawal threshold was tested 1, 3 and 5 hr later. TNP-ATP (10 μM) was preincubated with microglia starting 10 min prior to ATP application.

[2] = system: microglia in the dorsal horn; assay: Number of microglia and OX42 immunofluorescence in dorsal horn after ODN treatment; format: in vivo, rat; conditions: 5 nmol intrathecal once a day for 7 days
Excerpt: (§3) Transverse L5 spinal cord sections (30 μm) were cut and processed for immunohistochemistry using P2X4R antibody (Alomone). Markers of microglia, OX42 (Chemicon) and iba1 (gifted from S. Kohsaka); astrocytes, GFAP (Boehringer Mannheim); spinal cord neurones, NeuN (Chemicon) and MAP2 (Chemicon) were used to identify the type of P2X4R-positive cells. To assess immunofluorescence staining of cells quantitatively, we measured the immunofluorescence intensity of the P2X4R or OX42 as the average pixel intensity within each cell. Full details of experimental methods are as follows.
(§4) Transverse L5 spinal cord sections (30 μm) were incubated for 2 hr at room temperature in a blocking solution (3% normal goat serum) and then incubated for 48 hr at 4° C. in the primary antibody for P2X4R (anti-P2X4 receptor, 1:500, Alomone). […] The spinal cord sections were analysed using a MicroRadiance Confocal Imaging System (Bio-Rad) and an Olympus IX70 microscope equipped for epifluorescence. […] Microglia, as identified by OX42 immunofluorescence were outlined, and the immunofluorescence intensity (using a 9-bit scale) of the P2X4R or OX42 was determined as the average pixel intensity within each cell. Background fluorescence intensity was determined and was subtracted from the value obtained for microglia.

[3] = system: P2X4R protein; assay: Immunofluorescence intensity of P2X4R protein in individual dorsal horn microglia after ODN treatment; format: in vivo, rat; conditions: 5 nmol intrathecal once a day for 7 days
Excerpt: as §3, §4

[4] = system: P2X4R protein; assay: Western blot of P2X4R protein in spinal cord membrane fraction after intrathecal ODN treatment; format: in vivo, rat; conditions: 5 nmol intrathecal once a day for 7 days, immunoblot
Description: A unilateral L5 spinal nerve of male Wistar rats was tightly ligated and cut just distal to the ligature. To assess the mechanical allodynia, the calibrated von Frey filaments (0.4-15.1 g) were applied to the plantar surface of the hindpaw from below the mesh floor. The 50% paw withdrawal threshold was determined using the up-down method (Chaplan, S. R., Bach, F. W., Pogrel, J. W., Chung, J. M. & Yaksh, T. L. Quantitative assessment of tactile allodynia in the rat paw. J Neurosci Methods 53, 55-63, 1994). […] After the test, to quantify the levels of P2X4R protein in the spinal cord in both groups using Western blot analysis, the membrane fraction from the ipsilateral spinal cord segments L4-L6 was prepared. […]
The membrane fraction from spinal cord segments L4-L6 ipsilateral or contralateral to the nerve injury was used. […] The blots were detected using a chemiluminescence method (ECL system; Amersham) and exposed to autoradiography films (Hyperfilm-ECL; Amersham).

[5] = system: rat model of postoperative pain; conditions: administration at the incision area, effective only before surgical operation; cited from earlier work
[6] = system: effects of α,β-methylene ATP; assay: Check of biological activity against effects of α,β-methylene ATP in vitro and in vivo
Description: A unilateral L5 spinal nerve of male Wistar rats was tightly ligated and cut just distal to the ligature. To assess the mechanical allodynia, the calibrated von Frey filaments (0.4-15.1 g) were applied to the plantar surface of the hindpaw from below the mesh floor. The 50% paw withdrawal threshold was determined using the up-down method (Chaplan, S. R., Bach, F. W., Pogrel, J. W., Chung, J. M. & Yaksh, T. L. Quantitative assessment of tactile allodynia in the rat paw. J Neurosci Methods 53, 55-63, 1994). Rats were implanted with a PE-10 polyethylene tube to the lumber enlargement (Yaksh, T. L., Jessell, T. M., Gamse, R., Mudge, A. W. & Leeman, S. E. Intrathecal morphine inhibits substance P release from mammalian spinal cord in vivo. Nature 286, 155-157, 1980) for intrathecal injection of P2XR antagonists [2′,3′-O-(2,4,6-trinitrophenyl)adenosine 5′-triphosphate (TNP-ATP) (Sigma-RBI) and pyridoxalphosphate-6-azophenyl-2′,4′-disulphonic acid (PPADS) (Sigma-RBI)], P2X4R antisense or mismatch ODN. We confirmed that PPADS and TNP-ATP used in the present study show biological activity to inhibit effects of α,β-methylene ATP in vitro and in vivo. […] After the test, to quantify the levels of P2X4R protein in the spinal cord in both groups using Western blot analysis, the membrane fraction from the ipsilateral spinal cord segments L4-L6 was prepared. […]

[7] = molecular target: T1, P2X4Rs (Rattus norvegicus, UniProt P51577); assay: Intracellular Ca2+ imaging (fura-2) of ATP-evoked response in primary cultured microglia; format: cell-based; conditions: for ATP-evoked increase in 340/360 ratio (fura-2): 10 min before and during ATP (50 μM, 10 s)
T1 construct: mixed glial culture was prepared from neonatal Wistar rats; endogenous in cells; host or cells: primary cultured microglia from neonatal Wistar rats
T1 sequence (P51577 1-388): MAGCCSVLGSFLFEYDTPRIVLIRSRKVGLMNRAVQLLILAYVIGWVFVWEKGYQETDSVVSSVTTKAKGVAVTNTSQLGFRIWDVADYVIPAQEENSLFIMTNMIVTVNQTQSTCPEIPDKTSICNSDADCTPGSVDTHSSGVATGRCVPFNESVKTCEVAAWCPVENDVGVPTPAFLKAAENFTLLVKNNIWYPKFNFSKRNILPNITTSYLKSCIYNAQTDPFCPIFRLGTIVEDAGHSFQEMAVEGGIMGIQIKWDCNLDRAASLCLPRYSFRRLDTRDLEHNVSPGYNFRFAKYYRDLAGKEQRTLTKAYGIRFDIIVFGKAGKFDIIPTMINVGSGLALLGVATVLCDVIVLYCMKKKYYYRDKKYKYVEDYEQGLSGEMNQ
Description: As P2X4Rs are reported to be highly permeable to Ca^2+ (Khakh, B. S. et al. International union of pharmacology. XXIV. Current status of the nomenclature and properties of P2X receptors and their subunits. Pharmacol Rev 53, 107-118, 2001), we investigated whether the P2X4Rs on these microglia were functional by applying the agonist ATP and monitoring the level of intracellular Ca^2+ ([Ca^2+]i) in individual cells using the Ca^2+-sensitive fluorescent dye fura-2.
The detailed procedures are as follows. Rat primary cultured microglia were prepared according to the method described previously (Nakajima, K. et al. Identification of elastase as a secretory protease from cultured rat microglia. J Neurochem 58, 1401-1408, 1992). In brief, mixed glial culture was prepared from neonatal Wistar rats and maintained for 10-16 days in DMEM with 10% fetal bovine serum. Microglia were obtained as floating cells over the mixed glial culture. The floating cells were collected by a gentle shake and transferred to appropriate dishes or glasses, and then the microglia attached to them were used for RT-PCR, intracellular Ca^2+ imaging, immunocytochemistry.

[8] = system: nociceptive behaviours; conditions: intrathecal 30 or 100 nmol; cited from earlier work
[9] = system: normal rats; assay: Tactile allodynia in normal rats after intrathecal administration of ATP-stimulated cultured microglia; format: in vivo, rat
Description: as §1
as §2, with “On day 7, paw withdrawal threshold of antisense ODN- and mismatch ODN-treated rats were tested.” left out, “For the experiments in which cultured microglia were administered intrathecally, the cultured microglia were pre-incubated with ATP (50 μM) or PBS for 1 hr at 37° C. immediately prior to administration. Microglia with their supernatant were injected intrathecally in normal rats and paw withdrawal threshold was tested 1, 3 and 5 hr later. TNP-ATP (10 μM) was preincubated with microglia starting 10 min prior to ATP application.” left out

[10] = 5 nmol intrathecal once a day for 7 days, tested day 7
[11] = 30 nmol intrathecal 5 hr after ATP-stimulated microglia

## 5′-ACCGCCGCCAGTGCCT-3′ (DNA, backbone and methylation of C not given here; end-capped with phosphorothioate linkages) [mismatch ODN]
[1]; [10]
  paw withdrawal threshold compared with untreated controls: not different

## 5′-CAGCCCGCCATGGCTC-3′ (phosphorothioate end caps, number of linkages not given here) [P2X4R antisense ODN]
[2]
  level of OX42 immunofluorescence per individual microglia versus mismatch ODN: nor was there a difference
  number of microglia in the dorsal horn versus mismatch ODN: no difference
[1]; [10]
  nerve injury-induced decrease in paw withdrawal threshold compared with mismatch ODN: significantly less
  recovery of paw withdrawal threshold towards the baseline level prior to nerve injury: 47.4±8.3%
[3]
  decrease of immunofluorescence intensity of P2X4R protein in individual microglia versus mismatch ODN: 37.1±0.2%
[4]
  decrease of P2X4R protein level in spinal cord homogenates versus mismatch ODN: 32.0±4.8%

## Cc1nc(N=Nc2ccc(S(=O)(=O)O)cc2S(=O)(=O)O)c(COP(=O)(O)O)c(C=O)c1O [PPADS, Pyridoxalphosphate-6-azophenyl-2′,4′-disulphonic acid]
[5]
  allodynia in a rat model of postoperative pain: suppressed allodynia
[1]; day 7, 30 or 100 nmol intrathecal
  effect on paw withdrawal threshold: no effect
[1]; day 14, 30 or 100 nmol intrathecal
  effect on paw withdrawal threshold: no effect
[6]
  biological activity on effects of α,β-methylene ATP: inhibit
[7]; 10 μM
  ATP-evoked increase in 340/360 ratio (fura-2): unaffected
[8]
  nociceptive behaviours (intrathecal α,β-methylene ATP, second phase of formalin test, bee venom): suppress

## 2′,3′-O-(2,4,6-Trinitrophenyl) Adenosine 5′-Triphosphate [TNP-ATP]
[1]; 30 nmol intrathecal, 45 min after injection
  paw withdrawal threshold on the side contralateral to the nerve injury: 14.3 ± 0.8 g
[1]; 30 nmol intrathecal, nerve-injured rats
  time of peak increase in paw withdrawal threshold after injection: about 45 min
[1]; day 7, 30 nmol intrathecal, at peak of effect
  effect on tactile allodynia: reversed
[1]; day 7, intrathecal
  dose producing half-maximum effect on paw withdrawal threshold: 8.1 nmol
[1]; day 7 after nerve injury, 30 nmol intrathecal
  paw withdrawal threshold 45 min after injection: 14.6 ± 0.5 g
[1]; day 14, 30 nmol intrathecal, 45 min after injection
  recovery of paw withdrawal threshold: 73%
[1]; day 14, intrathecal
  dose producing half-maximum effect on paw withdrawal threshold: 15.5 nmol
[1]; day 14 after nerve injury, 30 nmol intrathecal
  paw withdrawal threshold 45 min after injection: 11.6 ± 1.3 g
[1]; intrathecal
  motor behaviour following administration: no alteration
[6]
  biological activity on effects of α,β-methylene ATP: inhibit
[7]; 10 μM
  ATP-evoked increase in 340/360 ratio (fura-2): suppressed
[9]; [11]
  effect on allodynia caused by ATP-stimulated microglia: reversed the allodynia
  time of peak increase in paw withdrawal threshold after injection: 45 to 75 min
[9]; 10 μM together with ATP (50 μM) in the microglia pre-incubation
  decrease in paw withdrawal threshold caused by ATP-stimulated microglia: prevented

## CCOc1ccc(Nc2ccc(/C(=C3C=C/C(=[N+](/CC)Cc4cccc(S(=O)(=O)[O-])c4)C=C/3C)c3ccc(N(CC)Cc4cccc(S(=O)(=O)[O-])c4)cc3C)cc2)cc1.[Na+] [brilliant blue G]
[7]; 100 nM
  ATP-evoked increase in 340/360 ratio (fura-2): not altered

## Nc1ncnc2c1ncn2[C@@H]1O[C@H](COP(=O)(O)OP(=O)(O)OP(=O)(O)O)[C@@H](O)[C@H]1O [ATP, adenosine 5′-triphosphate]
[7]; agonist 50 μM, 10 s
  340/360 emission ratio for fura-2 ([Ca2+]i): transient increase
[9]; normal rats, ATP 50 μM, tested 1, 3 and 5 hr later
  paw withdrawal threshold after intrathecal administration: unaffected
